The record followed here is ChEMBL document CHEMBL3392970, “Novel inhibitors of platelet aggregation” (ACS Med Chem Lett, 2015).

Assay [1] relates to Plasma. The assay is described as follows: Antiplatelet activity in rat platelet-rich plasma assessed as inhibition of platelet aggregation. The class given is functional, cell-free.
The subject of assay [2] is Plasma. Briefly: Antiplatelet activity in human platelet-rich plasma assessed as inhibition of platelet aggregation. The class given is functional, cell-free.

pIC50: −log10 of the molar value.

`CCCC(=O)c1cnn([C@H]2CC[C@H](NC(=O)c3cn(CC(=O)N4CCN(C)CC4)c4ccc(Cl)cc34)CC2)c1C`: the pIC50 – broadly, −log10 of the IC50, conventionally taken in molar units – in assay [1] was 7.04; in assay [2], 6.57.
Turning to `CCCC(=O)c1cnn(C2CCN(NC(=O)c3cn(CC(=O)N4CCN(C)CC4)c4ccc(Cl)cc34)CC2)c1C`, the pIC50 in assay [1] was 7.37; in assay [2], 7.60.
